# Measured values taken from a melting point compilation (Tetko et al.; mined from patent text by program, amines drawn as free bases though some values may be those of a salt).
row,SMILES,melting point [°C]
1,CC#CNC(=O)NC(=NC(=O)NCCCCCCCC)SC,123 to 125
2,COCCOc1ccc(/C=C/C(=O)NS(=O)(=O)c2cccc(C#N)c2)c(Oc2ncc(C(F)(F)F)cc2Cl)c1,195 to 197
3,CC(C)c1nn(-c2ccc(C(F)(F)F)cn2)cc1CCCOc1cccc(CC(=O)O)c1,82 to 83
4,COCCc1cc(N2CCN(C)CC2)n2nc(SC)c(S(=O)(=O)c3ccccc3)c2n1,160 to 161
5,N#CCc1ccccc1CCc1ccc(Br)cc1,59 to 60.5
6,N#Cc1cccc(OCc2cccc(OCc3ccc4ccccc4n3)c2)c1,86 to 87
7,CNC(=O)Cc1c(-c2ccc(C)cc2)nn2cccnc12,207 to 208
8,Oc1cc2c3ccc(O)c(O)c3n(Cc3c(Cl)cccc3Cl)c2cc1O,263 to 265
9,Cc1ccc(N)cc1Nc1nccc(-c2ccc(Cl)nc2)n1,117 to 118
10,CC(C)Oc1ccc(N)c(CC#N)n1,83 to 85
11,CCCN1CCc2c(cccc2NC(C)=O)C1,123
12,C=CCSc1ccc(Oc2cccc(C)c2)nn1,48 to 50
13,CC(C)(C(=O)O)c1ccc(OCCNC(=O)C2Cc3ccccc3N2S(=O)(=O)c2ccc(-c3cc(C(F)(F)F)ccc3Cl)cc2)cc1 (stereo unspecified),92 to 100
14,CC(C)n1c(=O)[nH]c2cccc(OCc3ccccc3)c21,224
15,N#CC1(c2ccccc2)CCN(c2ccn(CC3CC3)c(=O)c2Cl)CC1,174
16,CN1CCC(C2CCN(c3ncc4ncnc(Nc5ccc(F)c(Cl)c5)c4n3)CC2)CC1,159 to 162
17,CC(N1C(=O)C(=O)N(c2ccc(Br)cc2)C1=S)C(C)(C)C (stereo unspecified),207 to 208
18,CS(=O)(=O)c1ccc(C2=C(c3ccccc3)C(=O)N(c3ccc(F)cc3)C2=O)c(F)c1,198 to 200
19,CC(C)c1cccc(C(C)C)c1NC(=O)CNC(c1ccccc1)c1ccc(F)cc1 (stereo unspecified),161
20,CNc1ccc(Cl)cc1-c1cc2ccccc2[nH]1,123 to 126
21,COc1ccc(CC2CCC3NCC(CO)CC3C2)cc1 (stereo unspecified),160 to 162
22,CN(C)C=NS(=O)(=O)c1c(C(F)(F)F)nc2ccc(Cl)nn12,204 to 205
23,CN(C)C1Cc2cccc3ccn(c23)C1 (stereo unspecified),114 to 115
24,CSCc1cc(C(F)(F)F)ccc1N,65.5 to 67.5
25,CC1COC(c2cnc(C3=NC(C)(C(C)C)C(=O)N3)c(C(=O)O)c2)O1 (stereo unspecified),50 to 62
26,CCCc1c2c(c([N+](=O)[O-])c3c(=O)cc(C(=O)O)oc13)CCCC2,265 to 267

# Next, values leading:
row,melting point [°C],SMILES
1,165 to 168,CCCCCCCCCCCc1cc2ccc(C(=O)O)cc2n1C
2,259 to 260,COC(=O)c1ccc2c(Cl)c(C(=O)Cl)sc2c1
3,137 to 138,CCOC(=O)c1cc2c(Cl)ccc(N(C)S(=O)(=O)c3cccs3)c2n1COC
4,190 to 192,O=CNC1=NN(c2cccc(Cl)n2)CC1
5,139 to 141,COc1cc(C(C)C)c2c(c1)S(=O)(=O)N(COC(=O)c1cccs1)C2=O
6,73 to 74,CCOC(=O)/C=C/c1cnn(C)c1-c1cccs1
7,81 to 83,COC(=O)c1cc(C)c(OCCNC(=O)C2Cc3ccccc3N2S(=O)(=O)c2ccc(-c3cccc(C(F)(F)F)c3)cc2)c(C)c1 (stereo unspecified)
8,98.5 to 99.5,CC(C)(C)[Si](C)(C)OC1CN(c2ccc([N+](=O)[O-])cc2F)C1
9,145 to 147,CCOC(=O)C(=C1SC=C(O)S1)S(C)(=O)=O
10,225 to 227,CC1CC(=O)c2c(C(=O)Nc3cccnc3)c[nH]c2C1 (stereo unspecified)
11,68 to 72,COC(=O)c1ccc(OCc2ccccc2)c(C(C)=O)c1
12,80 to 81,COC(=O)c1ccc(O)c(C=O)c1
13,200 to 201,COc1ccc2c(c1)CC(=O)NC2c1ccc(Cl)cc1 (stereo unspecified)
14,51 to 53,Cc1csc2ccc(CO)cc12
15,65 to 67,CCCCc1cc(C=CC(=O)OC)c[nH]1
